Series [1] deals with human small cell lung cancer NCI-H209 cells. In words: CCK-8 growth inhibition of NCI-H209 cells, IMP4297 alone and combined with TMZ. The class given is cell-based. Particulars: NCI-H209, 120 h. The protocol:
The CCK-8 detection method was used to determine the inhibitory effect of IMP4297 combined with TMZ on the growth of human small cell lung cancer NCI-H209 cells. The resuscitated human small cell lung cancer NCI-H209 cells were inoculated into a culture dish, experimental medium (RPMI1640+20% FBS) was added, and the culture dish was incubated at 37° C. and 5% CO2 in an incubator. Cells with good growth and suitable confluence were selected for the experiment, and centrifiged at 800 rpm for 5 min. The supernatant was discarded. The cells were resuspended with fresh medium and inoculated into a 96-well cell culture plate at a suitable cell density. 190 μL of cell suspension liquid was inoculated into each well. The test compound (including IMP4297, TMZ and reference compound AZD2281) was serially diluted with DMSO at a ratio of 1:3 and 1:10 to 10 concentrations (the last concentration is the DMSO negative control). 5 μL of each concentration was added to 120 μL of media (25 times dilution). The mixture was mixed well by shaking. Separate medication: 5 μL of the diluted medium containing the corresponding concentration of the compound and 5 μL of the medium were added respectively, combined medication. 5 μL of the diluted medium containing the corresponding concentration of the compound and 5 μL of the medium containing the final concentration of 50 μM of TMZ were added respectively. The final concentration of DMSO is […]. The culture plate was then incubated at 37° C. and 5% CO2 in an incubator for 5 days. 20 μL of CCK-8 detection reagent was added to each well, and the culture was continued for 2 hours. The culture plate was then shaked for 10 minutes and placed on a multi-function reader to measure the absorbance value (OD value) using the wavelength of 450/65011m. Graph Pad Prism 6.0 was used to analyze the data. The inhibitory effects of compounds on cell proliferation were plotted based on cell viability and the logarithm of compound concentration. Cell viability % (nM) ODcompound/ODDMSO×100. […] The combination index was calculated using CalcuSyn software. […]

In series [2] the test system is NCI-H209 human small cell lung cancer xenograft tumor. As to the kind of experiment: In vivo efficacy of IMP4297 combined with TMZ in NCI-H209 xenograft tumor model. Also on record: species or system nude mice. Particulars: for body weight reduction during the experiment: single agent-treated groups (TMZ 3 mg/kg; IMP4297 10 mg/kg). The protocol: The anti-tumor efficacy of the compound IMP4297 combined with TMZ was evaluated in the NCI-H209 human small cell lung cancer xenograft tumor model in nude mice. For this purpose, human small cell lung cancer NCI-H209 cells were inoculated into the subcutaneous breast area of the right axilla of nude mice. The cell inoculation amount was 2×10^6 logarithmic growth phase cells. The inoculated mice were used after transplanted tumors were formed. Vigorously growing tumor tissues were cut into small pieces of 1×1×1 mm^3, and inoculated under the skin of the breast area of the right axilla of each BALB/c nude mouse. When the average tumor volume reached about 124.08 (57.16-280.79) mm^3, nude mice were randomly grouped according to the tumor volume and were administered the drugs.
After grouping and drug treatment start, the weight of nude mice was weighed twice a week and recorded. Weight change (%)=(Wt−W1)/W1×100%, wherein W1 is the body weight measured at the time of grouping administration (i.e D1), and Wt is the weight of the recording day. Weight change (%) is a measure of treatment-related toxicity (when average weight loss exceeded 15%, treatment was stopped or the schedule was adjusted until recovery; when average weight loss exceeded 20%, the experiment was terminated). The tumor diameter (length and width) was measured twice a week with a vernier caliper. The tumor volume (length×width^2/2) and the relative tumor volume RTV=Vt/V1 were calculated, wherein V1 is the tumor volume at the time of grouping administration (i.e. D1), and Vt is the tumor volume at each measurement. […] TGM(%)=[(CVt−CV1)−(TVt−TV1)]/(CVt−CV1)×100%, wherein […] is the tumor volume on the recording day of the vehicle control group, […] is the tumor volume of the vehicle control group at the time of grouping administration, TVt is the tumor volume of the drug administration group on the recording day, and TV1 is the tumor volume of the drug administration group at the time of grouping administration.
After the experiment, 3 nude mice were randomly selected from each group, and 300 μL of whole blood was collected from the orbit and placed in a BD K2EDTA anticoagulant tube (REF367841) for routine blood testing.
GraphPad Prism 6.0 software two-way ANOVA was used to compare the mean tumor volume and relative tumor volume between groups. Compared with the control group (vehicle), *p<0.05 (statistical difference), **p<0.01 (significant statistical difference), ***p<0.001 (very significant statistical difference); compared with the TMZ group, ^#p<0.05 (statistical difference), ^##p<0.01 (significant statistical difference), ^###p<0.001 (very significant statistical difference); compared with the IMP4297 group, ^+p<0.05 (statistical difference), ^++p<0.01 (significant statistical difference), ^+++p<0.001 (very significant statistical difference).

The test system of series [3] is animal model with BRCA mutation. In words: IMP4297 single agent efficacy in animal model with BRCA mutation. The class given is in vivo. Conditions: 2.5-20 mg/kg QD in mice.
The test system of series [4] is cancer. As to the kind of experiment: Clinical studies of IMP4297 as a single agent in patients with cancer (ESMO 2020 abstracts). The format is in vivo. Conditions: 20-120 mg QD in human.
Series [5] has as its system animal model with BRCA mutation. Conditions: cited from earlier work.
The subject of series [6] is cancer. Particulars: QD continuously, cited from earlier work.
The target in series [7] is T1, PARP1 (Homo sapiens, UniProt P09874). As to the kind of experiment: PARP1 trapping in HCT116 cells treated with TMZ (Western blot of chromatin-bound proteins, ImageJ). The format is cell-based. Also noted: endogenous in cells; host or cells: HCT116. Conditions: for grey density value of PARP1 band: 4 hours, HCT116. On the procedure: Colorectal carcinoma HCT116 cells were used in the experiment Cells in exponential growth phase were trypsinized and seeded to 10 cm cell culture plate at a density about 10-20% confluency After two days when cell density reached 70-80%, the cell culture was replaced with fresh medium containing vehicle, 0.1 μM or 10 μM of IMP4297 either in the presence or absence of 1 mM TMZ. Cells were treated for 4 hours. Chromatin-bound proteins were extracted according to the “Subcellular Protein Fractionation Kit for Cultured Cells (Thermo, LOT78840)” protocol.
T1 sequence (P09874 whole entry): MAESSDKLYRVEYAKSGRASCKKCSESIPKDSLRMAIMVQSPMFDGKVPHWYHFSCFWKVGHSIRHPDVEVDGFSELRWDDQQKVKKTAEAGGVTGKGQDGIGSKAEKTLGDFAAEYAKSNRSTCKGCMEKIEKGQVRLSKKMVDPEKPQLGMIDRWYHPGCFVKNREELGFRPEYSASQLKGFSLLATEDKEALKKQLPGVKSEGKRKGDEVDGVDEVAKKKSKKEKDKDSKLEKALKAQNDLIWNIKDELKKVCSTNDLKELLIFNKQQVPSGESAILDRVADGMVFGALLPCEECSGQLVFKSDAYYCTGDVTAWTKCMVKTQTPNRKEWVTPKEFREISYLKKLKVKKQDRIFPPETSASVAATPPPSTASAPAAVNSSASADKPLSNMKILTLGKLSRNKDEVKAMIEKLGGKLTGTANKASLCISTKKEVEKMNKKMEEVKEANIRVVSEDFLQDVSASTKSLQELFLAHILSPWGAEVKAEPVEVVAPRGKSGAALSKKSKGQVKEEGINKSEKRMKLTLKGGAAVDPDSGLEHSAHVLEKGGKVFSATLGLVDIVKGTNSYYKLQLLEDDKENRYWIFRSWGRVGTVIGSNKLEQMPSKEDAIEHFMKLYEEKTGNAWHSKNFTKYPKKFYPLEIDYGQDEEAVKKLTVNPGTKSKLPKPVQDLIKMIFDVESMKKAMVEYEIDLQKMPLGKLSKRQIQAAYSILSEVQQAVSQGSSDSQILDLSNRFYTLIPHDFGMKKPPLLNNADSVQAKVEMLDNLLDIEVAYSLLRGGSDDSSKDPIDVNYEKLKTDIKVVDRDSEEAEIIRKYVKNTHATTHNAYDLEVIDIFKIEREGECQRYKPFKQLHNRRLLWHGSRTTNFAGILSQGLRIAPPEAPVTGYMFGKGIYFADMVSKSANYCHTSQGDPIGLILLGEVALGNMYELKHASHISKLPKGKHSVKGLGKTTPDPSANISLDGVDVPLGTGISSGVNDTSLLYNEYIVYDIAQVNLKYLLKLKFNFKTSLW
PARP trapping was detected using SDS-PAGE electrophoresis followed by Western blot Extracted chromatin-bound protein samples were mixed with 5×SDS-PAGE solution and heated for 5 min at 100° C. Equal amount (25-30 μg) of protein was loaded to each lane on a pre-made SDS-PAGE gel (Genscript SurePAGE™, Bis-Tris, 4-20%, 15 wells M00657). Anti-PARP1 antibody (ABCAM ab227244) used in the study was 1:1000 diluted, anti-Histone 113 antibody (ABCAM ab1791) was 1.5000 diluted and anti-rabbit IgG HRP-linked Antibody (CST 7074s) was 1:2000 diluted. The bands were detected by standard Western blot protocol.
In general terms: Immunoblotting shows a protein as a band on a membrane.

The target of series [8] is T1, PARP1. As to the kind of experiment: PARP1 trapping in DU145 cells treated with MMS (Western blot of nuclear chromosomal fraction, ImageJ). The class given is cell-based. Also noted: the nuclear chromosomal component was extracted according to subcellular protein fractionation kit instructions; endogenous in cells; host or cells: DU145. Conditions: for grey density value of PARP1 band: MMS 0.01%, 4 hours. On the procedure:
Human prostate cancer DU145 cells were used in the experiment. On the first day, cells were seeded to 10 cm cell culture dishes and kept in an incubator overnight. […] The plates were swirled, and the cells were kept in an incubator at 37° C., 5% CO2 for 4 hours. Totally 12 samples were prepared and tested. After incubation, the nuclear chromosomal component was extracted according to subcellular protein fractionation kit instructions. Protein concentration was measured by Pierce® BCA Protein Assay Kit (Thermo) and protein was ready for western blot assay. 10 μg protein was loaded into each well of bolt gels, then wet transfer was performed, and the membrane was incubated overnight at 4° C. with anti-PARP antibody (Santa Cruz Biotechnology) with 1.500 dilution and 1:25000 dilution of anti-H3 antibody, respectively. The membrane was washed the next day with TBST 3 times, 5 minutes/time, then incubated with Goat anti-rabbit IgG-HRP (Santa Cruz Biotechnology) in a 1:4000 dilution for 1 hour at room temperature. ECL Prime Western Blotting Det kit (GE) was used to develop the target on the membrane.

In a further series the test system is BRCA mutant animal model. Conditions: cited from earlier work.
The subject of a further series is recurrent glioblastoma. Particulars: patients with recurrent glioblastoma; cited from earlier work.
Setting [9] is: separate medication, 5 days, CCK-8, read-out: IC50, proliferation of NCI-H209 cells.

The source of these data is US20230263801A1, “COMBINATION THERAPY OF PARP INHIBITORS” (IMPACT THERAPEUTICS (SHANGHAI), INC, priority 2020, published 2023).

Each structure is given as a SMILES string. Read-outs that look alike come from different tables or passages of the source. Marks after values point to notes of the source that are not given here. A value given as a limit tells only on which side of the number the result lay.

As for `O=C(c1cc(Cn2c(=O)[nH]c(=O)c3c(F)cccc32)ccc1F)N1CCN(c2ncccn2)CC1` [IMP4297, 5-fluoro-1-(4-fluoro-3-(4-(pyrimidin-2-yl)piperazine-1-carbonyl)benzyl)quinazoline-2,4(1H,3H)-dione], the IC50 in series [1] (setting [9]) stood at 0.113 µM. In addition, in [2] (IMP4297 10 mpk p.o. QD x 21 D), the “T/C (%)” value is 79.12** %. The “TGI (%)” value in series [2] (IMP4297 10 mpk p.o. QD x 21 D) is 18.80** %. In series [2], the “body weight reduction during the experiment” value is “no body weight reduction”. For the same molecule, the “inhibitory effect on tumor growth versus vehicle” value in [2] (single agent: TMZ 3 mg/kg, IMP4297 10 mg/kg) is given as “no significant inhibitory effect on tumor growth”. Further, the therapeutic window is given as 8 fold in series [3] and 6 fold with cancer [4]. In series [5], the “effective dose as a single agent” value was 2.5-20 mg/kg per day. Moreover, the “clinically effective dose as a single agent” value with cancer [6] (cancer patients) was 20 to 120 mg. Moreover, the “RP2D as a single agent” value in the series with cancer [6] is reported as 100 mg. The “PARP1 trapping in nuclear chromosome” value is given as “good PARP1 trapping” on PARP1 [7] (0.1-10 μM in HCT116 cells in the presence of TMZ) and “good PARP1 trapping” at PARP1 [8] (0.01-10 μM, DU145 cells treated with MMS). In addition, the “grey density value of PARP1 band” value turned out to be 398 at PARP1 [7] (IMP4297 0.1 μmol/L in the presence of TMZ 1 mM); 141 on PARP1 [7] (IMP4297 0.1 μmol/L, vehicle (no TMZ)); 446 on PARP1 [7] (IMP4297 10 μmol/L in the presence of TMZ 1 mM); 182 on PARP1 [7] (IMP4297 10 μmol/L, vehicle (no TMZ)); 3667.63 at PARP1 [8] (0.01 μmol/L drug, DU145); 4932.39 on PARP1 [8] (0.1 μmol/L drug, DU145). The “grey density value of PARP1 band” value on PARP1 [8] (1 μmol/L drug, DU145) is listed as 6036.79; at PARP1 [8] (10 μmol/L drug, DU145) it was 5302.8. For the same molecule, the “PARP1 trapping compared with Olaparib” value on PARP1 [8] (same concentrations and conditions, DU145) was “stronger PARP1 trapping in nuclear chromosome than Olaparib”.

Regarding `O=C(c1cc(Cc2n[nH]c(=O)c3ccccc23)ccc1F)N1CCN(C(=O)C2CC2)CC1` [Olaparib], the IC50 in series [1] (read-out: IC50, proliferation of NCI-H209 cells) was determined as 2.18 µM. Besides, the single effective dose in the series on BRCA mutant animal model (BRCA mutant animal model study) is on record as 50-100 mg/kg per day. For the same molecule, the “effect on TMZ-related hematological toxicity” value in the series on recurrent glioblastoma is recorded as “exacerbate TMZ-related hematological toxicity”.

Consider `Cn1nnc2c(C(N)=O)ncn2c1=O` [TMZ, Temozolomide, reference compound], for which, in [1] (setting [9]), the IC50 was greater than 100 µM. In addition, in [2] (TMZ 3 mg/kg p.o. QD x 21 D), the “T/C (%)” value was 64.03**** % and the “TGI (%)” value is given as 31.66**** %. Moreover, the “Average weight change (%)” value in series [2] (TMZ 3 mg/kg p.o. QD x 21 D, versus initial weight) turned out to be 7.99 ± 5.21%. Besides, the “body weight reduction during the experiment” value in [2] is “no body weight reduction”.

Turning to `Cn1ncnc1[C@H]1c2n[nH]c(=O)c3cc(F)cc(c23)N[C@@H]1c1ccc(F)cc1` [Talazoparib], the “single agent effective dose” value in the series on BRCA mutant animal model (BRCA mutated model) was 0.33 mg/kg.
